# How the values were obtained:
# [1] = system: Mycobacterium tuberculosis H37Rv (ATCC 27294); assay: Primary screen (dose response), Microplate Alamar Blue Assay (MABA), IC90; type: cell-based; conditions: M. tuberculosis H37Rv, BACTEC 12B medium, Level-I assay
# Method: Primary Screen (Dose Response): Determination of a 90% Inhibitory Concentration (IC90). The initial screen is conducted against Mycobacterium tuberculosis H37Rv (ATCC 27294) in BACTEC 12B medium using the Microplate Alamar Blue Assay (MABA). Compounds are tested in ten 2-fold dilutions, typically from 100 μg/mL to 0.19 μg/mL. The IC90 is defined as the concentration effecting a reduction in fluorescence of 90% relative to controls. This value is determined from the dose-response curve using a curve-fitting program. Any IC90 value of ≦10 μg/mL is considered “Active” for antitubercular activity.
# VERO cell = type: cell-based; conditions: VERO cell CC50 (72 hours exposure) / M. tuberculosis H37Rv IC90
substance,measurement,setting,value
"10,12-diheptanoyl-11-hydroxy-3-methyl-β-carboline [Compound I]","IC90 (90% inhibitory concentration), antituberculosis activity",[1],0.948 µg/mL
same,Selectivity Index (SI) = CC50 divided by IC90,VERO cell,> 105.48

# From patent US8420660B2, “Antitubercular alkaloid” (priority 2011, dated 2013)
